One may read the EC50 as the concentration needed to bring the measured effect to its halfway point.

Converted amounts (≈) assume the structure as drawn. The source made the active and inactive calls. No cut-off for these calls is given here.

Data set [1] has as its system 3T3-L1. The data set can be described thus: Hypoglycemic activity in mouse 3T3L1 cells assessed as increase in glucose consumption at 50 ug/ml after 24 hrs by 2-deoxyglucose uptake assay. The class given is functional, cell-based.
A short description of data set [2]: Antioxidant activity assessed as ABTS radical scavenging activity. In kind it is physicochemical.
Data set [3] in a line: Antioxidant activity assessed as DPPH radical scavenging activity. The class given is physicochemical. (In general: DPPH is a stable violet radical that fades when it is reduced.)
Data set [4] has as its system 3T3-L1. The data set can be described thus: Hypoglycemic activity in mouse 3T3L1 cells assessed as increase in glucose consumption at 50 ug/ml after 24 hrs by 2-deoxyglucose uptake assay.
The subject of data set [5] is 3T3-L1. Briefly: Hypoglycemic activity in mouse 3T3L1 cells assessed as increase in glucose consumption at 25 ug/ml after 24 hrs by 2-deoxyglucose uptake assay. In kind it is functional, cell-based.
Data set [6] relates to 3T3-L1. Briefly: Effect on lipid accumulation in mouse 3T3L1 cells at 20 ug/ml for 7 days by Oil Red O dye. In kind it is functional, cell-based.
Data set [7] relates to 3T3-L1. Briefly: Hypoglycemic activity in mouse 3T3L1 cells assessed as increase in glucose consumption at 12.5 ug/ml after 24 hrs by 2-deoxyglucose uptake assay. The class given is functional, cell-based.

Regarding `CCOC(=O)/C=C/c1ccc(O)c(O)c1` [ETHYL CAFFEATE], the outcome in data set [1] was Active. The EC50 in data set [2] worked out at 0.19 µg/mL (≈ 0.913 µM); in data set [3], 0.18 µg/mL (≈ 0.864 µM).
As for `O=c1cc(-c2ccc(O)cc2)oc2cc(O)cc(O)c12`, in data set [4], the result was inactive.
As to `C=CCCCCCC(O)C(O)C(O)C#CC#CCCC` (stereo not drawn), the result in data set [1], in data set [5] and in data set [7] was Active. Moreover, in data set [6], the result was inactive.

For the origin of these results see ChEMBL document CHEMBL3352648, “Bioactive constituents of Cirsium japonicum var. australe” (J Nat Prod, 2014).
